These results are taken from US4409210A, “Antibiotic compound” (priority 1982, dated 1983).

In this assay the test system is Clindamycin-erythromycin-resistant strains of C. difficile and C. perfringens. The class given is cell-based.

*1 amine or outer side, *2 acyl side, *3 side chain or, on linkers, in order; H or OH if unused. Where a SMILES comes first, the peptide text is derived from it. Bridges are numbered along the chain shown (N, C = ends). [ ]: non-standard residue; d: D form. ξ: configuration not given here. X2 = CCCCCCCCCCCC(CC(=O)[*:1])O[*:2]; ξAsp(3ξ-OH) = NC(C(=O)O)C(O)C(=O)O; X1 = O=C(C1C(O)CCN1[*:1])[*:2]

Take `CCCCCCCCCCCC1CC(=O)N2CCCC2C(=O)NC(CO)C(=O)N2CCCC2C(=O)NC(CCCNC(=N)N)C(=O)NC(C(O)C(=O)O)C(=O)NC(CO)C(=O)N2CCC(O)C2C(=O)NC(C(O)C(=O)O)C(=O)O1` (stereo not shown) [Bu-2517] (PSPR[ξAsp(3ξ-OH)]S[X1][ξAsp(3ξ-OH)]; linker N-C via X2; configuration not given here): the “concentration to which strains were susceptible” value was in the range of 1.6 to 3.1 µg/mL.
